In article PMC9090415, “Discovery of small molecule inhibitors of Plasmodium falciparum apicoplast DNA polymerase” (Journal of Enzyme Inhibition and Medicinal Chemistry, 2022):

Biological target: P. falciparum apicoplast DNA polymerase (Pf-apPOL) (Plasmodium falciparum, UniProt Q8ILY1)
Test: Fluorescence-based high-throughput DNA polymerase assay (molecular beacon), primary screen and dose-response
Type: biochemical
Outline: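 Single-point screening used 10 µM compound with 20 nM polymerase, 20 nM hairpin substrate and 6 µM dNTPs for 90 min at 25 °C. Confirmatory titrations (2.5–80 µM) followed fluorescence at three times, and IC50 was derived from a fit including a cooperativity term n.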

[1] = primary screen value of the 186 hits; unit not given; 90 min, 10 µM
[2] = supplemental file 2, sheet IC50 nontoxic compounds; Pf-apPOL
[3] = primary screen value, head "DNA Pol", unit not given; 90 min, 10 µM

P. falciparum apicoplast DNA polymerase (Pf-apPOL), sequence (Q8ILY1 entry or part of it): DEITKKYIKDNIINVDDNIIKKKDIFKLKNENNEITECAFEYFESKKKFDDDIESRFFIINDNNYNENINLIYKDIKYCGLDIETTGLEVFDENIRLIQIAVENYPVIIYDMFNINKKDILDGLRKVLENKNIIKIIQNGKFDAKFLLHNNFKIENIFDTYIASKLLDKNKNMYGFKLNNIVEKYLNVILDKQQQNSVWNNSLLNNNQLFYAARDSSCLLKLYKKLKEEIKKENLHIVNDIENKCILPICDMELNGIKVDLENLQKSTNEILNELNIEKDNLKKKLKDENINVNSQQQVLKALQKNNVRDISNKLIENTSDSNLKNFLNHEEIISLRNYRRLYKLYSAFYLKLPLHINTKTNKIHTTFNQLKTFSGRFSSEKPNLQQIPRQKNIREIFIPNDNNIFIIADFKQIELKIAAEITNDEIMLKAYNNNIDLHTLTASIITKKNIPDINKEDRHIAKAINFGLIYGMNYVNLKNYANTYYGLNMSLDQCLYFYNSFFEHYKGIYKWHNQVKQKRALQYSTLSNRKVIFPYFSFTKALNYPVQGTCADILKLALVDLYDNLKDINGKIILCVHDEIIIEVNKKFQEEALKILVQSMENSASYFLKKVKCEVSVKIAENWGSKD

## Cc1ccc(C2=N/C(=C\c3ccc(I)o3)C(=O)O2)cc1[N+](=O)[O-] [KU0073890]
DRC-1; concentration 2.5; 10'
  % inhibition Apo pol 10': 15.7556%
DRC-1; concentration 2.5; 90'
  % inhibition Apol 90': 9.731%
DRC-1; concentration 2.5; 180'
  % inhibition apPOL 180': 6.694%
DRC-1; concentration 5; 10'
  % inhibition Apo pol 10': 16.0721%
DRC-1; concentration 5; 90'
  % inhibition Apol 90': 7.063%
DRC-1; concentration 5; 180'
  % inhibition apPOL 180': 1.084%
DRC-1; concentration 10; 10'
  % inhibition Apo pol 10': 45.023%
DRC-1; concentration 10; 90'
  % inhibition Apol 90': 27.25%
DRC-1; concentration 10; 180'
  % inhibition apPOL 180': 14.7198%
DRC-1; concentration 20; 10'
  % inhibition Apo pol 10': 76.1272%
DRC-1; concentration 20; 90'
  % inhibition Apol 90': 60.0756%
DRC-1; concentration 20; 180'
  % inhibition apPOL 180': 43.2832%
DRC-1; concentration 40; 10'
  % inhibition Apo pol 10': 86.9883%
DRC-1; concentration 40; 90'
  % inhibition Apol 90': 86.9491%
DRC-1; concentration 40; 180'
  % inhibition apPOL 180': 82.7565%
DRC-1; concentration 80 (unit not given); 10'
  % inhibition Apo pol 10': 80.4424%
DRC-1; concentration 80; 90'
  % inhibition Apol 90': 89.2693%
DRC-1; concentration 80; 180'
  % inhibition apPOL 180': 91.2118%
DRC-2; 5'; concentration 2.5
  % inhibition Apo pol 5': 19%
DRC-2; 40'; concentration 2.5
  % inhibition Apol 40': 19%
DRC-2; 90'; concentration 2.5
  % inhibition ApPOL 90': 17%
DRC-2; 90'; concentration 40
  % inhibition ApPOL 90': 75%
DRC-2; 90'; concentration 80
  % inhibition ApPOL 90': 75%
DRC-2; 180'; concentration 5
  % inhibition apPOL 180': 17%
DRC-2; concentration 2.5; 5'
  % inhibition Apo pol 5': 19%
DRC-2; concentration 2.5; 40'
  % inhibition Apol 40': 19%
DRC-2; concentration 2.5; 90'
  % inhibition ApPOL 90': 17%
DRC-2; concentration 2.5; 180'
  % inhibition apPOL 180': 11%
DRC-2; concentration 5; 5'
  % inhibition Apo pol 5': 35%
DRC-2; concentration 5; 40'
  % inhibition Apol 40': 32%
DRC-2; concentration 5; 90'
  % inhibition ApPOL 90': 29%
DRC-2; concentration 5; 180'
  % inhibition apPOL 180': 17%
DRC-2; concentration 10; 5'
  % inhibition Apo pol 5': 44%
DRC-2; concentration 10; 40'
  % inhibition Apol 40': 42%
DRC-2; concentration 10; 90'
  % inhibition ApPOL 90': 38%
DRC-2; concentration 10; 180'
  % inhibition apPOL 180': 25%
DRC-2; concentration 20; 5'
  % inhibition Apo pol 5': 55%
DRC-2; concentration 20; 40'
  % inhibition Apol 40': 62%
DRC-2; concentration 20; 90'
  % inhibition ApPOL 90': 60%
DRC-2; concentration 20; 180'
  % inhibition apPOL 180': 51%
DRC-2; concentration 40; 5'
  % inhibition Apo pol 5': 58%
DRC-2; concentration 40; 40'
  % inhibition Apol 40': 73%
DRC-2; concentration 40; 90'
  % inhibition ApPOL 90': 75%
DRC-2; concentration 40; 180'
  % inhibition apPOL 180': 77%
DRC-2; concentration 80; 5'
  % inhibition Apo pol 5': 49%
DRC-2; concentration 80; 40'
  % inhibition Apol 40': 70%
DRC-2; concentration 80; 90'
  % inhibition ApPOL 90': 75%
DRC-2; concentration 80; 180'
  % inhibition apPOL 180': 80%
[1]
  DNA Pol: 42
Primary screen value; head prints only 'DNA Pol'; 90 min, 10 µM
  DNA Pol: 42

## O=C(Nc1nnc(-c2cccs2)o1)c1ccc([N+](=O)[O-])o1 [Molecule 74]
[2]
  IC50: 30.8 µM

## CSC1=C(C#N)C(=C(C#N)C#N)NC(c2ccccc2)=N1 [Molecule 2]
[2]
  IC50: 5.66 µM

## COc1ccc(-c2c(C(F)(F)F)nn3c(=O)cc(-c4cccc([N+](=O)[O-])c4)[nH]c23)cc1 [Molecule 16]
[2]
  IC50: 9.3 µM

## Oc1cccc2ccc(/C=C/c3ccc4c(c3)OCO4)nc12 [KU0025984]
DRC-1; 10'; concentration 2.5
  % inhibition Apo pol 10': -0.2183%
DRC-1; 10'; concentration 5
  % inhibition Apo pol 10': 11.208%
DRC-1; 10'; concentration 10
  % inhibition Apo pol 10': 38.8453%
DRC-1; 10'; concentration 20
  % inhibition Apo pol 10': 79.6836%
DRC-1; 10'; concentration 40
  % inhibition Apo pol 10': 89.9069%
DRC-1; 10'; concentration 80
  % inhibition Apo pol 10': 93.1389%
DRC-1; 90'; concentration 2.5
  % inhibition Apol 90': -7.534%
DRC-1; 90'; concentration 5
  % inhibition Apol 90': 4.814%
DRC-1; 90'; concentration 10
  % inhibition Apol 90': 24.6628%
DRC-1; 90'; concentration 20
  % inhibition Apol 90': 70.7764%
DRC-1; 90'; concentration 40
  % inhibition Apol 90': 83.7672%
DRC-1; 90'; concentration 80
  % inhibition Apol 90': 87.8493%
DRC-1; 180'; concentration 2.5
  % inhibition apPOL 180': -11.2426%
DRC-1; 180'; concentration 5
  % inhibition apPOL 180': -1.027%
DRC-1; 180'; concentration 10
  % inhibition apPOL 180': 13.0398%
DRC-1; 180'; concentration 20
  % inhibition apPOL 180': 59.792%
DRC-1; 180'; concentration 40
  % inhibition apPOL 180': 76.8882%
DRC-1; 180'; concentration 80
  % inhibition apPOL 180': 82.4453%
DRC-2, 5', concentration 2.5 (unit not given)
  % inhibition Apo pol 5': 14%
DRC-2, 40', concentration 2.5 (unit not given)
  % inhibition Apol 40': 14%
DRC-2, 90', concentration 20 (unit not given)
  % inhibition ApPOL 90': 70%
DRC-2, 180', concentration 5 (unit not given)
  % inhibition apPOL 180': 12%
DRC-2, 180', concentration 40 (unit not given)
  % inhibition apPOL 180': 70%
DRC-2; 5'; concentration 2.5
  % inhibition Apo pol 5': 14%
DRC-2; 5'; concentration 5
  % inhibition Apo pol 5': 21%
DRC-2; 5'; concentration 10
  % inhibition Apo pol 5': 38%
DRC-2; 5'; concentration 20
  % inhibition Apo pol 5': 50%
DRC-2; 5'; concentration 40
  % inhibition Apo pol 5': 52%
DRC-2; 5'; concentration 80
  % inhibition Apo pol 5': 53%
DRC-2; 40'; concentration 2.5
  % inhibition Apol 40': 14%
DRC-2; 40'; concentration 5
  % inhibition Apol 40': 25%
DRC-2; 40'; concentration 10
  % inhibition Apol 40': 47%
DRC-2; 40'; concentration 20
  % inhibition Apol 40': 69%
DRC-2; 40'; concentration 40
  % inhibition Apol 40': 71%
DRC-2; 40'; concentration 80
  % inhibition Apol 40': 74%
DRC-2; 90'; concentration 2.5
  % inhibition ApPOL 90': 12%
DRC-2; 90'; concentration 2.5 (unit not given)
  % inhibition ApPOL 90': 12%
DRC-2; 90'; concentration 5
  % inhibition ApPOL 90': 24%
DRC-2; 90'; concentration 10
  % inhibition ApPOL 90': 45%
DRC-2; 90'; concentration 20
  % inhibition ApPOL 90': 70%
DRC-2; 90'; concentration 40
  % inhibition ApPOL 90': 72%
DRC-2; 90'; concentration 80
  % inhibition ApPOL 90': 77%
DRC-2; 180'; concentration 2.5
  % inhibition apPOL 180': -0.452%
DRC-2; 180'; concentration 5
  % inhibition apPOL 180': 12%
DRC-2; 180'; concentration 10
  % inhibition apPOL 180': 35%
DRC-2; 180'; concentration 20
  % inhibition apPOL 180': 66%
DRC-2; 180'; concentration 40
  % inhibition apPOL 180': 70%
DRC-2; 180'; concentration 80
  % inhibition apPOL 180': 78%
[1]
  DNA Pol: 45
[3]
  DNA Pol: 45

## O=C(Cn1ccc2c(=O)[nH]ccc21)Nc1ccc(Cl)cc1 [Molecule 36, O=C(Cn1ccc2c1cc[nH]c2=O)Nc1ccc(cc1)Cl]
DRC-1; 10'; concentration 2.5
  % inhibition Apo pol 10': 6.801%
DRC-1; 10'; concentration 5
  % inhibition Apo pol 10': 22.3776%
DRC-1; 10'; concentration 10
  % inhibition Apo pol 10': 24.792%
DRC-1; 10'; concentration 20
  % inhibition Apo pol 10': 79.2996%
DRC-1; 10'; concentration 40
  % inhibition Apo pol 10': 82.0585%
DRC-1; 10'; concentration 80
  % inhibition Apo pol 10': 79.648%
DRC-1; 90'; concentration 2.5
  % inhibition Apol 90': -0.4643%
DRC-1; 90'; concentration 5
  % inhibition Apol 90': 11.3565%
DRC-1; 90'; concentration 10
  % inhibition Apol 90': 14.0157%
DRC-1; 90'; concentration 20
  % inhibition Apol 90': 73.6159%
DRC-1; 90'; concentration 40
  % inhibition Apol 90': 79.7069%
DRC-1; 90'; concentration 80
  % inhibition Apol 90': 82.9478%
DRC-1; 180'; concentration 2.5
  % inhibition apPOL 180': -6.005%
DRC-1; 180'; concentration 5
  % inhibition apPOL 180': 0.9781%
DRC-1; 180'; concentration 10
  % inhibition apPOL 180': 3.9308%
DRC-1; 180'; concentration 20
  % inhibition apPOL 180': 61.1275%
DRC-1; 180'; concentration 40
  % inhibition apPOL 180': 73.0225%
DRC-1; 180'; concentration 80
  % inhibition apPOL 180': 82.2877%
DRC-2, 5', concentration 10 (unit not given)
  % inhibition Apo pol 5': 44%
DRC-2, 5', concentration 20 (unit not given)
  % inhibition Apo pol 5': 44%
DRC-2, 40', concentration 10 (unit not given)
  % inhibition Apol 40': 57%
DRC-2, 40', concentration 20 (unit not given)
  % inhibition Apol 40': 63%
DRC-2, 40', concentration 40 (unit not given)
  % inhibition Apol 40': 63%
DRC-2, 90', concentration 5 (unit not given)
  % inhibition ApPOL 90': 20%
DRC-2, 90', concentration 10 (unit not given)
  % inhibition ApPOL 90': 57%
DRC-2, 90', concentration 40 (unit not given)
  % inhibition ApPOL 90': 67%
DRC-2, 180', concentration 20 (unit not given)
  % inhibition apPOL 180': 63%
DRC-2, 180', concentration 80 (unit not given)
  % inhibition apPOL 180': 67%
DRC-2; 5'; concentration 2.5
  % inhibition Apo pol 5': 0%
DRC-2; 5'; concentration 5
  % inhibition Apo pol 5': 20%
DRC-2; 5'; concentration 5 (unit not given)
  % inhibition Apo pol 5': 20%
DRC-2; 5'; concentration 10
  % inhibition Apo pol 5': 44%
DRC-2; 5'; concentration 20
  % inhibition Apo pol 5': 44%
DRC-2; 5'; concentration 40
  % inhibition Apo pol 5': 41%
DRC-2; 5'; concentration 80
  % inhibition Apo pol 5': 30%
DRC-2; 40'; concentration 2.5
  % inhibition Apol 40': -0.111%
DRC-2; 40'; concentration 5
  % inhibition Apol 40': 24%
DRC-2; 40'; concentration 10
  % inhibition Apol 40': 57%
DRC-2; 40'; concentration 20
  % inhibition Apol 40': 63%
DRC-2; 40'; concentration 40
  % inhibition Apol 40': 63%
DRC-2; 40'; concentration 80
  % inhibition Apol 40': 56%
DRC-2; 90'; concentration 2.5
  % inhibition ApPOL 90': -2%
DRC-2; 90'; concentration 5
  % inhibition ApPOL 90': 20%
DRC-2; 90'; concentration 10
  % inhibition ApPOL 90': 57%
DRC-2; 90'; concentration 20
  % inhibition ApPOL 90': 66%
DRC-2; 90'; concentration 40
  % inhibition ApPOL 90': 67%
DRC-2; 90'; concentration 80
  % inhibition ApPOL 90': 61%
DRC-2; 180'; concentration 2.5
  % inhibition apPOL 180': -7%
DRC-2; 180'; concentration 5
  % inhibition apPOL 180': 11%
DRC-2; 180'; concentration 10
  % inhibition apPOL 180': 48%
DRC-2; 180'; concentration 20
  % inhibition apPOL 180': 63%
DRC-2; 180'; concentration 40
  % inhibition apPOL 180': 69%
DRC-2; 180'; concentration 80
  % inhibition apPOL 180': 67%
[1]
  DNA Pol: 46
[3]
  DNA Pol: 46
